From US20130136778A1, “PTEROSTILBENE (PTER) FOR USE IN THE PREVENTION AND/OR TREATMENT OF SKIN DISEASES, DAMAGES OR INJURIES” (GREEN MOLECULAR, S.L., priority 2009, published 2013)

Tests used:
SKH-1 mice [1] = assay: Skinfold thickness (edema) after acute UV-B exposure of 360 mJ/cm2; type: in vivo
Experimental: UVB Acute exposure protocols were used: Mice underwent a single exposure of 360 mJ/cm2. The study was conducted at 24 hours after exposure. This protocol was used to evaluate the photoprotective effect of the compounds studied. With the same acute-phase protocol mice from all groups were irradiated. Subsequently mice remained in the animal storage area for a week to see the evolution of the inflammatory response and edema. For the UVB exposure studies (chronic or acute) a topical administration to the back of the mouse was conducted. The commercial sunscreens were applied directly on the mouse. The polyphenols in the study were administered in a liposomal preparation diluted 1:1 with Carbopol polymer which will be the vehicle for these liposomes. Each polyphenol dose administered was 10 μmol/mouse, as free acid. • 1. Edema formation: skinfold thickness was determined with a caliper 24 hours after the first exposure. • 2. Study of the thickness of the epidermis after exposure to acute irradiation (360 mj/cm^2 24 h hours and 7 days after irradiation). • 3. Histological studies: measuring, in the pictures obtained from histological sections, the thickness of the epidermis. With the purpose of assessing the effects of the photoprotective compounds studied, female mice SKH-1 of between 6-8 weeks old were subjected to a single exposure of 360 mJ/cm. For the ultraviolet B (UVB) irradiation exposure, a camera specifically prepared, available at our laboratory was used (Crosslinker; Bio-Link BLX 254) equipped with 5 tubes that produce 80% of the UVB radiation, with a maximum emission of 312 nm. The two protocols of UV-B exposure used were: • Intense exposure after a single exposure of 360 mJ/cm^2. The study was carried out 24 hours after the exposure. This protocol was used to assess the photoprotective effects of the compounds studied. • Intense exposure after a single exposure of 360 mJ/cm^2. The study was carried out 1 week after the exposure. The mice were kept in the shed for a week to observe the evolution of the inflammatory and edematous response. As reference, several commercial photoprotective products were used ([…] Heliocare). The reference compounds as well as the products object of this study, were applied on the back of the mice for 20 minutes after or 20 minutes before the irradiation with UV-B, to determine if the reaction observed was due to an effect of the solar filter or not. […] The skinfold was measured by making a fold on the skin from the back of the mice, from the axillae to the hips; the fold was measured with a vernier caliper. The increase in the fold was calculated by the difference between the initial point, before the effects of the reaction, and the thickness in each point.

[2] = Absorption spectrum of polyphenols (mechanical filter capacity); type: physicochemical; conditions: 1 mM in pure ethanol, 200-800 nm
Experimental: A solution of 1 mM of each polyphenol was prepared (PTER, Resveratrol and QUER) in absolute ethanol (HPLS quality; Quima) and the absorption spectrum was studied between 200 and 800 nm using a Multiskan Spectrum (ThermoScientific).
With the purpose of studying the capacity of the polyphenols used in this study, we decided to evaluate the absorption of light throughout the ultraviolet light spectrum as shown in FIG. 13.

SKH-1 mice [3] = assay: Experimental psoriasis induced by TPA; type: in vivo
Experimental: For the induction of psoriasis, the agent “12-O-tetradecanoylphorbol-13 acetate” (TPA) was used.
Since our objective was to assess the progress of the lesions caused by psoriasis in combination with the use of polyphenols, a model of continuous exposure and a weaker concentration of TPA were used, on a daily dose of 2 nmoles of TPA over a period of a week, which allowed us to observe the progress of the psoriasis.
The induction was performed with 2 nmol TPA/mouse on an area of 1 cm^2, applying 10 μL of the 200 μM solution in acetone. This application protocol was carried out taking into account that when applying 20 μL as stated in the model, the volume increased considerably and it lost its concentration, therefore it was decided to make it more concentrated.
As a standard treatment, Dexamethasone was used, (from Sigma Solution 25 mM in acetone). The administration of the standard treatment and the products to be tested were given 30 minutes prior to the application of TPA, both beginning on the same day.
The groups, of 6 mice, for this assessment were: • Not treated. • Reference compound: 0.5 μmoles of Dexamethasone (200 μL of one solution 25 mM in acetone). • Medium: 200 μl of vacuumed Liposomes. • Resveratrol: 200 μL of Resveratrol Liposomes (10 μmol in total). • PTER: 200 μL of PTER Liposomes (10 μmol in total). • QUER: 200 μL of QUER Liposomes (10 μmol in total). • PTER+QUER:: 200 μL of PTER Liposomes+QUER (10 μmol in total).
At 24 hours (day 7) after the last administration of the different treatments and TPA, 3 mice from each group were sacrificed and their skin fixed with 4% PFA. The remaining mice were kept under the treatment with no exposure to TPA, to verify if the skin recovered faster on the treatment than on its own. At 24 hours (day 9) after the last administration of the different treatments the rest of the mice were sacrificed and their skin fixed with 4% PFA.
The flaky aspect of the skin was quantified in a scale of 0-3, being 0, nothing; 1, mild; 2, moderate; 3, severe.

COc1cc(/C=C/c2ccc(O)cc2)cc(OC)c1 [PTER, 3,5-dimethoxy-4′-hydroxy-trans-resveratrol]
formation of the edema (thickness of the skin) after severe UV-B exposure (SKH-1 mice [1]; FIG. 1): the formation of the edema was reduced | skinfold thickness 24 h after irradiation, applied after UVB (SKH-1 mice [1]; FIG. 1, applied 20 min after): more efficient for the treatment of skin diseases, damages or injuries due to radiation, when applied after the exposure to UVB, than the commercial creams (Vichy, Heliocare and Isdin) and that RESV | skinfold thickness 24 h after irradiation, applied before UVB (SKH-1 mice [1]; FIG. 1, applied 20 min before): more efficient as photoprotector, when applied before the exposure to UVB, than the commercial creams (Vichy, Heliocare and Isdin) and that RESV | absorption of light, range of maximum absorption [2]: peaks or maximum absorption in the range of Ultraviolet B | index of excoriation or descaling (scale 0-3) (SKH-1 mice [3]; 24 hours after 7 administrations of TPA): fewer indexes of excoriation or descaling | increase of skinfold throughout the procedure (SKH-1 mice [3]; FIG. 23, 6 consecutive days, treatment 30 min prior to 2 nmol TPA): an important decrease in the increase of skinfolds | increase in the skinfold 24 hours after the first administration of TPA (SKH-1 mice [3]; FIG. 24, treatment 30 min prior to 2 nmol TPA): significantly diminished the appearance of edema | skinfold after 3 administrations of TPA (SKH-1 mice [3]; FIG. 25): produce a diminishing effect on the inflammation produced by TPA | histological analysis of the lesions (SKH-1 mice [3]; FIG. 28, hematoxylin-eosin, TPA daily over 7 days): no signs of papillomatosis, but there was acanthosis due to a massive proliferation
